Laboratory results as given in patent US11006631B2, “Substituted pyrimidinyloxy pyridine derivatives as herbicides” (FMC Corporation, priority 2015, dated 2021).

Columns and labels:
Format in all cases: in vivo
[1] = test system: morningglory (Ipomoea spp.); test: Test A postemergence, morningglory; conditions: 0 to 100 scale
From the text: (§1) Seeds of plant species selected from bamyardgrass (Echinochloa crus-galli), kochia (Kochia scoparia), ragweed (common ragweed, Ambrosia elatior), ryegrass, Italian (Italian ryegrass, Lolium multiflorum), foxtail, giant (giant foxtail, Setaria faberii), pigweed (Amaranthus retroflexus), crabgrass, large (large crabgrass, Digitaria sanguinalis), momingglory (Ipomoea spp.), velvetleaf (Abutilon theophrasti), wheat (Triticum aestivum), and corn (Zea mays) were planted into a blend of loam soil and sand and treated preemergence with a directed soil spray using test chemicals formulated in a non-phytotoxic solvent mixture which included a surfactant. At the same time, plants selected from these crop and weed species and also blackgrass (Alopecurus myosuroides), and galium (catchweed bedstraw, Galium aparine) were planted in pots containing the same blend of loam soil and sand and treated with postemergence applications of test chemicals formulated in the same manner. Plants ranged in height from 2 to 10 cm and were in the one- to two-leaf stage for the postemergence treatment. Treated plants and untreated controls were maintained in a greenhouse for approximately 10 days, after which time all treated plants were compared to untreated controls and visually evaluated for injury. Plant response ratings, summarized in Table A, are based on a 0 to 100 scale where 0 is no effect and 100 is complete control. A dash (-) response means no test result.

corn (Zea mays) [2] = test: Test A preemergence, corn; conditions: 0 to 100 scale
From the text: as §1

[3] = test system: morningglory (Ipomoea spp.); test: Test A preemergence, morningglory; conditions: 0 to 100 scale
From the text: as §1

[4] = test system: pigweed (Amaranthus retroflexus); test: Test A preemergence, pigweed; conditions: 0 to 100 scale
From the text: as §1

[5] = test system: barnyardgrass (Echinochloa crus-galli); test: Test A postemergence, barnyardgrass; conditions: 0 to 100 scale
From the text: as §1

rice (Oryza sativa) = test: Test B flooded paddy test, rice; conditions: Flood, 250 g ai/ha; scale of 0 to 100
Description: (§2) Plant species in the flooded paddy test selected from rice (Oryza sativa), sedge, umbrella (small-flower umbrella sedge, Cyperus difformis), ducksalad (Heteranthera limosa), and barnyardgrass (Echinochloa crus-galli) were grown to the 2-leaf stage for testing. At time of treatment, test pots were flooded to 3 cm above the soil surface, treated by application of test compounds directly to the paddy water, and then maintained at that water depth for the duration of the test. Treated plants and controls were maintained in a greenhouse for 13 to 15 days, after which time all species were compared to controls and visually evaluated. Plant response ratings, summarized in Table B, are based on a scale of 0 to 100 where 0 is no effect and 100 is complete control. A dash (-) response means no test result.

[6] = test system: sedge, umbrella (small-flower umbrella sedge, Cyperus difformis); test: Test B flooded paddy test, sedge, umbrella; conditions: Flood, 250 g ai/ha; scale of 0 to 100
Description: as §2

[7] = test system: wheat (Triticum aestivum); test: Test A postemergence, wheat; conditions: 0 to 100 scale
From the text: as §1

[8] = test system: foxtail, giant (giant foxtail, Setaria faberii); test: Test A postemergence, foxtail, giant; conditions: 0 to 100 scale
From the text: as §1

[9] = test system: wheat (Triticum aestivum); test: Test A preemergence, wheat; conditions: 0 to 100 scale
From the text: as §1

[10] = test system: pigweed (Amaranthus retroflexus); test: Test A postemergence, pigweed; conditions: 0 to 100 scale
From the text: as §1

[11] = test system: barnyardgrass (Echinochloa crus-galli); test: Test A preemergence, barnyardgrass; conditions: 0 to 100 scale
From the text: as §1

[12] = test system: velvetleaf (Abutilon theophrasti); test: Test A postemergence, velvetleaf; conditions: 0 to 100 scale
From the text: as §1

[13] = test system: foxtail, giant (giant foxtail, Setaria faberii); test: Test A preemergence, foxtail, giant; conditions: 0 to 100 scale
From the text: as §1

[14] = test system: crabgrass, large (large crabgrass, Digitaria sanguinalis); test: Test A preemergence, crabgrass, large; conditions: 0 to 100 scale
From the text: as §1

[15] = test system: ducksalad (Heteranthera limosa); test: Test B flooded paddy test, ducksalad; conditions: Flood, 250 g ai/ha; scale of 0 to 100
Description: as §2

[16] = test system: velvetleaf (Abutilon theophrasti); test: Test A preemergence, velvetleaf; conditions: 0 to 100 scale
From the text: as §1

[17] = test system: crabgrass, large (large crabgrass, Digitaria sanguinalis); test: Test A postemergence, crabgrass, large; conditions: 0 to 100 scale
From the text: as §1

corn (Zea mays) [18] = test: Test A postemergence, corn; conditions: 0 to 100 scale
From the text: as §1

[19] = test system: ryegrass, Italian (Italian ryegrass, Lolium multiflorum); test: Test A postemergence, ryegrass, Italian; conditions: 0 to 100 scale
From the text: as §1

[20] = test system: blackgrass (Alopecurus myosuroides); test: Test A postemergence, blackgrass; conditions: 0 to 100 scale
From the text: as §1

[21] = test system: ragweed (common ragweed, Ambrosia elatior); test: Test A preemergence, ragweed; conditions: 0 to 100 scale
From the text: as §1

[22] = test system: ragweed (common ragweed, Ambrosia elatior); test: Test A postemergence, ragweed; conditions: 0 to 100 scale
From the text: as §1

[23] = test system: galium (catchweed bedstraw, Galium aparine); test: Test A postemergence, galium; conditions: 0 to 100 scale
From the text: as §1

[24] = test system: ryegrass, Italian (Italian ryegrass, Lolium multiflorum); test: Test A preemergence, ryegrass, Italian; conditions: 0 to 100 scale
From the text: as §1

[25] = test system: barnyardgrass (Echinochloa crus-galli); test: Test B flooded paddy test, barnyardgrass; conditions: Flood, 250 g ai/ha; scale of 0 to 100
Description: as §2

kochia (Kochia scoparia) [26] = test: Test A postemergence, kochia; conditions: 0 to 100 scale
From the text: as §1

kochia (Kochia scoparia) [27] = test: Test A preemergence, kochia; conditions: 0 to 100 scale
From the text: as §1

Clc1cnc(Oc2cccnc2-n2cc(-c3ccccc3)cn2)nc1 [Compound 4]
70: Plant response rating, Sedge, Umbrella [6] | Plant response rating, Pigweed ([10]; 500 g ai/ha)
0: Plant response rating, Morningglory ([1]; 125 g ai/ha) | Plant response rating, Corn (corn (Zea mays) [2]; 125 g ai/ha) | Plant response rating, Corn (corn (Zea mays) [2]; 500 g ai/ha) | Plant response rating, Morningglory ([3]; 125 g ai/ha) | Plant response rating, Morningglory ([3]; 500 g ai/ha) | Plant response rating, Pigweed ([4]; 125 g ai/ha) | Plant response rating, Pigweed ([4]; 500 g ai/ha) | Plant response rating, Barnyardgrass ([5]; 125 g ai/ha) | Plant response rating, Wheat ([7]; 125 g ai/ha) | Plant response rating, Wheat ([7]; 500 g ai/ha) | Plant response rating, Foxtail, Giant ([8]; 125 g ai/ha) | Plant response rating, Foxtail, Giant ([8]; 500 g ai/ha) | Plant response rating, Wheat ([9]; 125 g ai/ha) | Plant response rating, Wheat ([9]; 500 g ai/ha) | Plant response rating, Barnyardgrass ([11]; 125 g ai/ha) | Plant response rating, Barnyardgrass ([11]; 500 g ai/ha) | Plant response rating, Velvetleaf ([12]; 125 g ai/ha) | Plant response rating, Velvetleaf ([12]; 500 g ai/ha) | Plant response rating, Foxtail, Giant ([13]; 125 g ai/ha) | Plant response rating, Foxtail, Giant ([13]; 500 g ai/ha) | Plant response rating, Crabgrass, Large ([14]; 125 g ai/ha) | Plant response rating, Crabgrass, Large ([14]; 500 g ai/ha) | Plant response rating, Ducksalad [15] | Plant response rating, Velvetleaf ([16]; 125 g ai/ha) | Plant response rating, Velvetleaf ([16]; 500 g ai/ha) | Plant response rating, Crabgrass, Large ([17]; 125 g ai/ha) | Plant response rating, Crabgrass, Large ([17]; 500 g ai/ha) | Plant response rating, Corn (corn (Zea mays) [18]; 125 g ai/ha)
20: Plant response rating, Barnyardgrass ([5]; 500 g ai/ha) | Plant response rating, Pigweed ([10]; 125 g ai/ha)
10: Plant response rating, Morningglory ([1]; 500 g ai/ha) | Plant response rating, Rice (rice (Oryza sativa))
30: Plant response rating, Corn (corn (Zea mays) [18]; 500 g ai/ha)

Clc1ccc(-c2cccnc2Oc2ncc(Cl)cn2)nc1 [Compound 12, 5-chloro-2-[(5-chloro[2,3′-bipyridin]-2′-yl)oxy]pyrimidine]
30: Plant response rating, Barnyardgrass ([5]; 125 g ai/ha) | Plant response rating, Sedge, Umbrella [6] | Plant response rating, Pigweed ([10]; 125 g ai/ha) | Plant response rating, Ducksalad [15]
60: Plant response rating, Pigweed ([4]; 125 g ai/ha)
40: Plant response rating, Kochia (kochia (Kochia scoparia) [26]; 125 g ai/ha) | Plant response rating, Kochia (kochia (Kochia scoparia) [27]; 125 g ai/ha)
10: Plant response rating, Ragweed ([22]; 125 g ai/ha) | Plant response rating, Galium ([23]; 31 g ai/ha) | Plant response rating, Galium ([23]; 125 g ai/ha) | Plant response rating, Pigweed ([10]; 31 g ai/ha) | Plant response rating, Corn (corn (Zea mays) [18]; 125 g ai/ha)
0: Plant response rating, Ryegrass, Italian ([19]; 31 g ai/ha) | Plant response rating, Ryegrass, Italian ([19]; 125 g ai/ha) | Plant response rating, Pigweed ([4]; 31 g ai/ha) | Plant response rating, Barnyardgrass ([5]; 31 g ai/ha) | Plant response rating, Blackgrass ([20]; 31 g ai/ha) | Plant response rating, Blackgrass ([20]; 125 g ai/ha) | Plant response rating, Ragweed ([21]; 31 g ai/ha) | Plant response rating, Ragweed ([21]; 125 g ai/ha) | Plant response rating, Ragweed ([22]; 31 g ai/ha) | Plant response rating, Ryegrass, Italian ([24]; 31 g ai/ha) | Plant response rating, Ryegrass, Italian ([24]; 125 g ai/ha) | Plant response rating, Barnyardgrass [25] | Plant response rating, Wheat ([7]; 31 g ai/ha) | Plant response rating, Wheat ([7]; 125 g ai/ha) | Plant response rating, Foxtail, Giant ([8]; 31 g ai/ha) | Plant response rating, Foxtail, Giant ([8]; 125 g ai/ha) | Plant response rating, Kochia (kochia (Kochia scoparia) [26]; 31 g ai/ha) | Plant response rating, Kochia (kochia (Kochia scoparia) [27]; 31 g ai/ha) | Plant response rating, Barnyardgrass ([11]; 31 g ai/ha) | Plant response rating, Barnyardgrass ([11]; 125 g ai/ha) | Plant response rating, Foxtail, Giant ([13]; 31 g ai/ha) | Plant response rating, Foxtail, Giant ([13]; 125 g ai/ha) | Plant response rating, Corn (corn (Zea mays) [18]; 31 g ai/ha)
20: Plant response rating, Rice (rice (Oryza sativa))
